{
  "source": "paper PMC10499603",
  "about": "“Polθ is phosphorylated by PLK1 to repair double-strand breaks in mitosis” (Nature, 2023)",
  "key": {"[1]": {"system": "Polθ foci in G2, wild-type cells", "test": "Polθ foci in G2", "type": "cell-based, human", "settings": "aphidicolin 0.4 to 1.6 μM", "experimental": "(§1) Cells grown on coverslips were fixed for 15 min in 2% paraformaldehyde, permeabilized for 10 min in 0.5% Triton X-100, blocked for 30 min in BSA 5%, 0.1% Triton X-100, immunostained for 1 h with primary antibodies, 45 min with secondary antibodies (Highly Cross-Adsorbed Secondary Antibodies Alexa Fluor, ThermoFisher Scientific) and mounted Vectashield mounting medium containing DAPI (Vector Laboratories). The same protocol was applied to mitotic cells, which were collected by shake off and centrifuged onto glass slides using a cytospin centrifuge (400g, 5 min) before fixation. […] Biotin azide-EdU click-it reaction was performed after fixation and permeabilization by incubating cells with a mix of Picolyl biotin, CuSO4, THPTA (Jena Bioscience) and sodium ascorbate in PBS for 30 min in the dark followed by an incubation with streptavidin conjugated Alex fluor 647 antibody (ThermoFisher Scientific) during 1 h at room temperature. Images were taken at 60× or 100× magnification using Upright Spinning disk Confocal Microscope (Roper/Zeiss) or at 40× magnification using DeltaVision (Deconvolution) Image Restoration Microscope. All images were taken with a Z-stack of 0.4 μM on 8 μM range around focus and projected using maximum intensity projection. Images were analysed using the Fiji software. […] Images were mounted in SoftWoRx and analysed using the Fiji software (1.53c). […]"}, "[2]": {"system": "BRCA2^−/− cells", "test": "Clonogenic survival, BRCA2^−/−", "type": "cell-based, human", "settings": "Rucaparib 1 μM, 1 h in mitosis", "experimental": "(§2) For mitotic cells: cells were blocked in G2 using RO3306 (5 μM), released, then blocked in mitosis by nocodazole and subsequently seeded for clonogenic survival. Polθ-mAID cells were blocked 4 h in RO3306 (5 μM) with or without IAA (500 μM) and released in nocodazole with or without IAA for 1 h. In the case of PARPi treatment, cells were blocked 16 h in RO3306 (5 μM) and released in nocodazole with or without Rucaparib (1 μM) for 1 h. After shake off, mitotic cells were washed twice with warm media, counted and seeded for clonogenic survival. For interphase cells: growing cells were treated with IAA (500 μM), or Rucaparib (1 μM) for indicated time, washed twice with warm media and counted. For clonogenic assay upon siRNA transfection, 150,000 cells were plated per well of a 6-well plate and transfected the same day with indicated siRNA. The day after, cells were washed twice, counted and seeded for clonogenic survival. For each condition, two concentrations of cells (BRCA2^−/− cells: 500 and 2000 cells; wild-type cells: 50 and 150 cells) were seeded per well of a 6-well plate. Finally, 10 to 14 days after seeding, colonies were stained with blue methylene (Sigma, 1808) for 2 h at room temperature, washed in water, air-dried overnight and scored manually."}, "[3]": {"system": "mitotic BRCA2^−/− cells", "test": "Metaphase spreads, chromosomal abnormalities", "type": "cell-based, human", "settings": "Rucaparib, 1 h in mitosis", "experimental": "Cells were blocked in G2 with RO3306 (5 μM) for 16 h, released, then blocked in mitosis by nocodazole and subsequently treated with Rucaparib for 1 h. After shake off, mitotic cells were centrifuged and subsequently resuspended in a pre-warmed hypotonic solution (0.075 M KCl) and maintained at 37 °C for 15 min. Cells were then centrifuged, and pellets were fixed in fresh methanol and stored at −20 °C. After metaphase spreading, air-dried slides were stained with a Gurr/Giemsa/Acetone solution (Gibco, 10582013; Giemsa (KaryoMAX Giemsa stain solution, Gibco, 10092013)) for 5 min and then rinsed twice with Gurr buffer. Slides were air-dried and neo-mounted with anhydrous mounting medium (Merck, 109016). Images were acquired at 100× magnification using DeltaVision (Deconvolution) Image Restoration Microscope."}, "[4]": {"system": "wild-type cells", "test": "Clonogenic survival, wild-type", "type": "cell-based, human", "settings": "Rucaparib 1 μM, 1 h in mitosis", "experimental": "as §2"}, "[5]": {"system": "mitotic BRCA2^−/− cells", "test": "γH2AX / DSB formation in mitotic cells", "type": "cell-based, human", "settings": "Rucaparib 1 μM, 1 h in mitosis", "experimental": "Cells grown on coverslips were fixed for 15 min in 2% paraformaldehyde, permeabilized for 10 min in 0.5% Triton X-100, blocked for 30 min in BSA 5%, 0.1% Triton X-100, immunostained for 1 h with primary antibodies, 45 min with secondary antibodies (Highly Cross-Adsorbed Secondary Antibodies Alexa Fluor, ThermoFisher Scientific) and mounted Vectashield mounting medium containing DAPI (Vector Laboratories). The same protocol was applied to mitotic cells, which were collected by shake off and centrifuged onto glass slides using a cytospin centrifuge (400g, 5 min) before fixation. […] Biotin azide-EdU click-it reaction was performed after fixation and permeabilization by incubating cells with a mix of Picolyl biotin, CuSO4, THPTA (Jena Bioscience) and sodium ascorbate in PBS for 30 min in the dark followed by an incubation with streptavidin conjugated Alex fluor 647 antibody (ThermoFisher Scientific) during 1 h at room temperature. Images were taken at 60× or 100× magnification using Upright Spinning disk Confocal Microscope (Roper/Zeiss) or at 40× magnification using DeltaVision (Deconvolution) Image Restoration Microscope. All images were taken with a Z-stack of 0.4 μM on 8 μM range around focus and projected using maximum intensity projection. Images were analysed using the Fiji software. All scale bars represent 5 μm unless stated otherwise."}, "[6]": {"system": "Polθ recruitment to mitotic DSBs", "test": "Polθ recruitment to laser microirradiated stripes in mitosis", "type": "cell-based, human", "settings": "PARPi (Rucaparib), laser microirradiation", "experimental": "Laser micro-irradiation was performed with a two-photon Ti:Saphire laser (Mai Tai DeepSee, Spectra Physics) at 800 nm with 20% power (from 2.1 W) on an inverted laser scanning confocal microscope equipped with spectral detection and a multi-photon laser (LSM880NLO/Mai Tai Laser, Zeiss, Spectra Physics), using a 40× objective NA1.3 oil DICII PL APO (420852-9870). Images were analysed using the ‘plot Z-axis profile’ function of Fiji (version 2.1.0/1.53c). X-ray irradiations were performed using the CIXD Dual Irradiator (RadeXp platform, Institut Curie)."}, "[7]": {"system": "Polθ phosphorylation", "test": "Label-free MS quantification of Polθ phospho-sites in mitotic HeLa GFP-Polθ cells", "type": "cell-based, Homo sapiens", "settings": "nocodazole 16 h, volasertib during last hour, IP 500 mM NaCl, five experiments", "experimental": "For the identification of Polθ binding partners by mass spectrometry, Polθ immunoprecipitation was performed as described above in 5 mg of nuclear extract of HEK-293T NeonGreen-POLQ knock-in cells. Lysates were incubated with mNeonGreen-Trap Magnetic Agarose beads (Chromotek) for 2 h at 4 °C and beads were washed twice with 150 mM NaCl buffer, once with 300 mM NaCl and three times in 25 mM ammonium bicarbonate. Finally, beads were resuspended in 100 µl 25 mM ammonium bicarbonate and digested by adding 0.2 μg of trypsin/LysC (Promega) for 1 h at 37 °C. Samples were then loaded into custom-made C18 StageTips packed by stacking one AttractSPE disk (SPE-Disks-Bio-C18-100.47.20 Affinisep) and 2 mg beads (186004521 SepPak C18 Cartridge Waters) into a 200 µl micropipette tip for desalting. Peptides were eluted using a ratio of 40:60 MeCN:H2O + 0.1% formic acid and vacuum concentrated to dryness. Peptides were reconstituted in injection buffer (0.3% TFA) before liquid chromatography–tandem mass spectrometry (LC–MS/MS) analysis by using an RSLCnano system (Ultimate 3000, Thermo Scientific) coupled to an Orbitrap Exploris 480 mass spectrometer (Thermo Scientific) as described previously. Mass spectrometry analysis was performed on three independent experiments. NeonGreen-Trap Magnetic Agarose beads incubated in HEK native cell extracts were used as control. For Polθ phosphorylated sites identification by mass spectrometry, Hela cells expressing GFP–Polθ were blocked 16 h in nocodazole. DMSO or Volasertib was added during the last hour of nocodazole treatment. 5 mg of nuclear extract were incubated with GFP Trap Magnetic Agarose beads (Chromotek) for 2 h at 4 °C and beads were washed once with 150 mM NaCl buffer, twice with 300 mM NaCl and twice with 500 mM NaCl buffer. Finally, beads were resuspended in 100 µl 25 mM Ammonium bicarbonate and digested by adding 0.2 μg of trypsin/LysC (Promega) for 1 h at 37 °C. Samples were then desalted and peptides were reconstituted in injection buffer before LC–MS/MS analysis as described previously in the Polθ binding partners identification. Mass spectrometry analysis was performed on five independent experiments. GFP Trap Magnetic Agarose beads incubated in HeLa native cell extracts were used as controls. […] Beads were resuspended, digested and desalted, and then peptides were reconstituted in injections buffer before LC–MS/MS analysis, as described for Polθ binding partners identification and by using an Orbitrap Eclipse mass spectrometer. Mass spectrometry analysis was performed on five independent experiments. Pull-downs of streptavidin beads incubated in nuclear extract of HeLa cells were used as control."}, "[8]": {"system": "Polθ foci in mitosis", "test": "Polθ recruitment to DSBs in mitosis under PLK1 inhibition", "type": "cell-based, human", "settings": "wild-type Polθ expressing cells, PLK1i (Volasertib, 200 nM)", "experimental": "as §1"}, "[9]": {"system": "mitotic end joining", "test": "Mitotic end-joining repair assay (extrachromosomal substrate, qPCR)", "type": "cell-based, human", "settings": "PLK1i (Volasertib, 200 nM), mitotic cells, substrate 150 ng, 1.5 h", "text": "To assess mitotic end-joining repair, a DNA repair substrate was designed to mimic resected DNA ends containing four microhomologies, as previously described. The repair substrate was built by ligating a PCR product (GFP sequence) to DNA oligonucleotide duplexes on both sides. The PCR product (747 bp) was amplified from a GFP sequence (PCAG vector, Addgene) using the following oligonucleotide sequences (Fwd core GFP: […], Rev core GFP: […]), digested by the BsaI-HF v2 enzyme (NEB) to reveal 4 nucleotides (nts) complementary to the DNA oligonucleotide duplexes and finally, purified (Gel and PCR cleanup kit Macherey-Nagel). In parallel, two oligonucleotide duplexes (1 and 2) with ~70 nts overhangs were made after annealing (95 °C 10 min, 25 °C 30 min) of the following oligonucleotides. Oligonucleotides for duplex 1 (17 nt dsDNA, 69 nt ssDNA): oligo 1-A, […]; oligo 1-B, […]. Oligonucleotides for duplex 2 (15 nt dsDNA, 71 nt ssDNA): oligo 2-A, […]; oligo 2-B: […]. […]\nTo measure DNA repair efficiency, a qPCR was performed both on the GFP sequence (to control for the DNA repair substrate transfection) as well as on potential end-joining repair products. Mitotic end-joining repair efficiency was calculated using ΔΔCt between GFP qPCR and end-joining qPCR using SYBR Green Master Mix (ThermoFisher Scientific)."}, "[10]": {"system": "Polθ nuclear bodies", "test": "Polθ nuclear bodies in G1 after siRNA", "type": "cell-based, human", "settings": "siRNA knockdown, G1 cells", "experimental": "Transfection of siRNA oligonucleotides (Eurofins) was performed using Lipofectamine RNAiMax (ThermoFisher Scientific) following the manufacturer’s instructions.\nCells grown on coverslips were fixed for 15 min in 2% paraformaldehyde, permeabilized for 10 min in 0.5% Triton X-100, blocked for 30 min in BSA 5%, 0.1% Triton X-100, immunostained for 1 h with primary antibodies, 45 min with secondary antibodies (Highly Cross-Adsorbed Secondary Antibodies Alexa Fluor, ThermoFisher Scientific) and mounted Vectashield mounting medium containing DAPI (Vector Laboratories). The same protocol was applied to mitotic cells, which were collected by shake off and centrifuged onto glass slides using a cytospin centrifuge (400g, 5 min) before fixation. […] Biotin azide-EdU click-it reaction was performed after fixation and permeabilization by incubating cells with a mix of Picolyl biotin, CuSO4, THPTA (Jena Bioscience) and sodium ascorbate in PBS for 30 min in the dark followed by an incubation with streptavidin conjugated Alex fluor 647 antibody (ThermoFisher Scientific) during 1 h at room temperature. Images were taken at 60× or 100× magnification using Upright Spinning disk Confocal Microscope (Roper/Zeiss) or at 40× magnification using DeltaVision (Deconvolution) Image Restoration Microscope. […] Images were analysed using the Fiji software. […]"}},
  "data": [
    {"compound": "C[C@@]1(CO)[C@H](O)CC[C@@]2(C)[C@H]1CC[C@H]1C[C@@H]3C[C@@]12CC[C@]3(O)CO", "note": "[aphidicolin, Aphidicolin]", "values": [
      {"measurement": "Polθ foci in G2", "setting": "[1]", "result": "Polθ foci in G2 could be induced by replication stress (aphidicolin treatment) in wild-type cells, to the level of that in BRCA2^−/− cells"}
    ]},
    {"compound": "CNCc1ccc(-c2[nH]c3cc(F)cc4c3c2CCNC4=O)cc1", "note": "[Rucaparib]", "values": [
      {"measurement": "clonogenic survival / cell killing", "setting": "[2]", "result": "sufficient to kill BRCA2^−/−"},
      {"measurement": "chromosomal abnormalities (breaks and radials)", "setting": "[3]", "result": "induced the formation of DSBs and chromosomal abnormalities"},
      {"measurement": "clonogenic survival / cell killing", "setting": "[4]", "result": "sufficient to kill BRCA2^−/− but not wild-type cells"},
      {"measurement": "DSB formation in mitosis", "setting": "[5]", "result": "induced the formation of DSBs"},
      {"measurement": "Polθ recruitment to mitotic DSBs", "setting": "[6]", "result": "abolished"}
    ]},
    {"compound": "CC[C@@H]1C(=O)N(C)c2cnc(Nc3ccc(C(=O)N[C@H]4CC[C@H](N5CCN(CC6CC6)CC5)CC4)cc3OC)nc2N1C(C)C", "note": "[Volasertib]", "values": [
      {"measurement": "Ratio Nocodazole / Volacertib, phospho-site S1628.S1639", "setting": "[7]", "result": 5.418},
      {"measurement": "Ratio Nocodazole / Volacertib, phospho-site S1594", "setting": "[7]; adj. p 0.00104923", "result": 1.901},
      {"measurement": "Ratio Nocodazole / Volacertib, phospho-site S1094*", "setting": "[7]; adj. p 0.0536125, * only re-extracted peptides by MBR", "result": 1.958},
      {"measurement": "Ratio Nocodazole / Volacertib, phospho-site T1755", "setting": "[7]; adj. p 0.0634598", "result": 3.242},
      {"measurement": "Ratio Nocodazole / Volacertib, phospho-site S1436*", "setting": "[7]; adj. p 0.115005, * only re-extracted peptides by MBR", "result": 1.887},
      {"measurement": "Ratio Nocodazole / Volacertib, phospho-site S1289", "setting": "[7]; adj. p 0.400471", "result": 3.904},
      {"measurement": "Polθ recruitment to DSBs in mitosis", "setting": "[8]", "result": "neither mutant was recruited to DSBs in mitosis (Fig. 3f, Extended Data Fig. 8a and Supplementary Video 4), similar to our observations in wild-type Polθ expressing cells under PLK1 inhibition"},
      {"measurement": "efficiency of mitotic end joining", "setting": "[9]", "result": "greatly impaired the efficiency of mitotic end joining"}
    ]},
    {"compound": "CAGGACAGUCUUUCCACGAdTdT (sense CAGGACAGUCUUUCCACGATT; chemistry not fully specified) [53BP1, siRNA targeting 53BP1]", "values": [
      {"measurement": "Polθ nuclear body formation", "setting": "[10]", "result": "increased Polθ nuclear body formation"}
    ]}
  ]
}
